Consider 2 compounds from patent publication US20240166630A1, “INDOLE DERIVATIVES AS SEROTONERGIC AGENTS USEFUL FOR THE TREATMENT OF DISORDERS RELATED THERETO” (Mindset Pharma Inc., priority 2021, published 2024).

One data set has as its system male C57BL6 mice. The experiment in a line: Mouse head-twitch response (HTR). The format is in vivo. To be noted: mice pretreated with M100907 prior to compound. Here is the method: Male, C57BL/6J mice (body weight range 20-30 g) were dosed with the appropriate dose of test article, and following a 1-minute pre-treatment time, placed in individual observation chambers. Animals were visually assessed for the incidence head twitches continuously over a 1 hr period. Head twitches were defined as a rapid jerk of the head which was not elicited by an external tactile stimulus (Come and Pickering, Psychopharmacologia, 1967, 11(1): 65-78). Each head twitch was individually counted by a trained observer, and the data expressed as the mean±SEM of 6-10 mice per group. Mice were used in a single experiment only.
Dose response (0.3-3 mg/kg SC) 5-HT2A signs of WDS/BMC measured over 1h. Also locomotor activity and other 5-HT receptor signs measured. For example, the effect on various doses of exemplary compound of Formula I-B, I-B-1, on head-twitch response (HTR) in male C57BL6 mice was studied. The mice were treated with exemplary compound I-B-1 (0.03-10 mg/kg) by SC route in a vehicle of 10% DMSO in Saline (2 drops HCl (0.1M)+1 drop Tween 80 were added), and the total number of head twitches were recorded over a one hour period. Data is expressed as mean±SEM (see, FIG. 1).

For data set [1], the target named is T1, human 5-HT2A (h5-HT2A) receptor (Homo sapiens, UniProt P28223).
T1 construct: expressed in transfected cells; kept under G418 and hygromycin B selection
T1 sequence (P28223 whole entry): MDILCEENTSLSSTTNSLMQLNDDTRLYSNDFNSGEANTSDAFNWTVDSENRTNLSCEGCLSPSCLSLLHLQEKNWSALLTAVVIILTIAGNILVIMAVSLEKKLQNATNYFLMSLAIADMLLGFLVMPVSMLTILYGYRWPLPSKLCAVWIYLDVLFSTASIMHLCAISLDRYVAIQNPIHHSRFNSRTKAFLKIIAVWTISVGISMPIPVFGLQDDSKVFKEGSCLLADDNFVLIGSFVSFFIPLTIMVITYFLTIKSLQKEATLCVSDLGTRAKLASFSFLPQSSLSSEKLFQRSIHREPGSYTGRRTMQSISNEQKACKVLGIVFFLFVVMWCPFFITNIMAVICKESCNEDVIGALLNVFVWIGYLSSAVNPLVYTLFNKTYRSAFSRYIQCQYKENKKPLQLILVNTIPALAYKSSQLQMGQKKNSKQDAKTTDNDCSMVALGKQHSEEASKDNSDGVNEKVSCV
The experiment in a line: FLIPR assay, human 5-HT2A receptor under agonist mode. It counts as cell-based. Here is the method: I. Assessment of the Activated Effect of Compounds of Formula I-B Targeting on Human 5-HT2A (h5-HT2A) Receptor Under Agonist Mode:
1. The cells were cultured in cell culture medium (DMEM containing 10% FBS, 1× penicillin-streptomycin 300 μg/ml G418 and 100 μg/ml hygromycin B) at 37° C., 5% (v/v) CO2.
2. One day before the assays, the cells were detached using TrypLE™ Express and count cells using cell counter.
3. 20000 cells/well were seeded in 30 μl/well culture medium to a 384-well cell plate and incubated the cells overnight at 37° C., 5% (v/v) CO2.
4. On the assay day, 2×dye solution was prepared following the manual of the FLIPR® Calcium 6 Assay Kit: i. The dye was diluted with assay buffer (20 mM HEPES in 1×HBSS, PH7.4); ii. probenecid was added to the final concentration of 5 mM; iii. Vortexed vigorously for 1-2 minutes.
5. Medium was removed from cell plate by flicking the cell plate on towel papers.
7. The cell plate was placed on plate shaker, the plate agitated at 600 rpm for 2 minutes. The plate was incubated at 37° C. for 2 hours followed by additional 15-minute incubation at 25° C.
8. 3×compound was prepared in assay buffer: a. Reference compounds were diluted to required concentration with DMSO. The compounds were added to a 384-well compound plate; b. Serial dilutions were performed; c. 10 mM test compounds were added to the compound plate, 3-fold serial dilutions were performed. […] 20 μl/well assay buffer was added to the compound plate; f.
9. The cell plate, compound plate and tips were placed into FLIPR, 10 μl of 3× compound was transferred to the cell plate per well with FLIPR.
i. The normalized fluorescence reading (RFU) was calculated as shown follow, while Fmax and Fmin stand for maximum and minimum of calcium signal during defined time window: RFU=Fmax−Fmin
ii. The percentage activation was calculated by using following equation: […]
iii. EC50 was calculated by fitting % activation against log of compound concentrations with Hill equation using Xlfit.

Data set [2] addresses T2, human 5-HT2A (Homo sapiens, UniProt P28223). The experiment in a line: Radioligand binding assay on human 5-HT2A receptor ([3H]-ketanserin). On the procedure:
i. The assay buffer was prepared following the table below;
iii. Prepared (v/v) DMSO as follows: a. […] The plates were sealed and incubated at 4° C. for 3 hrs;
iv. Preparation of assay plates: a.
vi. The plates were sealed and incubated at 27° C. for 90 min.

Data set [3] in a line: Liver microsomes stability with NADPH, human. The conditions noted are these: human liver microsomes, with NADPH, 2 μM. On the procedure:
(§1) The objective of this study was to estimate in vitro metabolic stability of representative compounds of the application in pooled human and male mouse liver microsomes. The concentrations of parent compounds in reaction systems were evaluated by LC-MS/MS for estimating the stability in pooled human and male mouse liver microsomes. The in vitro intrinsic clearances of test compounds were determined as well.
(§2) A master solution in the “Incubation Plate” containing phosphate buffer, ultra-pure H2O, MgCl2 solution and liver microsomes was made according to Table 3. The mixture was pre-warmed at 37° C. water bath for 5 minutes.
(§3) 40 μL of 10 mM NADPH solution was added to each well. The final concentration of NADPH was 1 mM. The negative control samples were prepared by replacing NADPH with 40 μL of ultra-pure H2O. Samples were prepared in duplicate. Negative controls were prepared in singlet.
(§4) The reaction was started with the addition of 4 μL of 200 μM test compounds or control compounds to each master solution to get the final concentration of 2 μM. This study was performed in duplicate.
(§5) Aliquots of 50 μL were taken from the reaction solution at 0, 15, 30, 45 and 60 minutes. The reaction solutions were stopped by the addition of 4 volumes of cold methanol with IS (100 nM alprazolam, 200 nM imipramine, 200 nM labetalol and 2 μM ketoprofen). Samples were centrifuged at 3,220 g for 40 minutes. Aliquot of 90 μL of the supernatant was mixed with 90 μL of ultra-pure H2O and then was used for LC-MS/MS analysis.
(§6) LC/MS analysis was performed for all samples from this study using a Shimadzu liquid chromatograph separation system equipped with degasser DGU-20A5R; solvent delivery unit LC-30AD; system controller SIL-30AC; column oven CTO-30A; CTC Analytics HTC PAL System; Mass spectrometric analysis was performed using an Triple Quad™ 5500 instrument.
(§7) All calculations were carried out using Microsoft Excel. Peak area ratios of test compound to internal standard (listed in the below table) were determined from extracted ion chromatograms.
(§8) All calculations were carried out using Microsoft Excel. Peak areas were determined from extracted ion chromatograms. The slope value, k, was determined by linear regression of the natural logarithm of the remaining percentage of the parent drug vs. incubation time curve.
(§9) The in vitro half-life (in vitro t1/2) was determined from the slope value:
(§10) Conversion of the in vitro t1/2 (min) into the in vitro intrinsic clearance (in vitro CLint, in μL/min/mg proteins) was done using the following equation (mean of duplicate determinations): […]
A general note: Liver microsomes are vesicles of endoplasmic reticulum, rich in cytochrome P450 enzymes.

Data set [4] is described as follows: Liver microsomes stability with NADPH, mouse. On the procedure:
as §1, §2, §3, §4, §5, §6, §7, §8, §9, §10

The target of data set [5] is T2, human 5-HT2A. The conditions noted are these: read-out: binding affinity 5-HT2A; literature value; cited from earlier work.
The conditions of data set [6]: rapid first-pass metabolism by monoamine oxidase; cited from earlier work.
Data set [7] can be described thus: Liver microsomes stability with NADPH, rat.

Structures are written as SMILES.

T2 sequence (P28223 whole entry): as above

As for `COc1cccc([C@H](O)C2CCN(CCc3ccc(F)cc3)CC2)c1OC` [Compound M100907], the “effect of pretreatment with 5-HT2AR antagonist on HTR induced by compounds of Formula I-B” value with male C57BL6 mice is “completely blocked”.
As for `CN(C)CCc1c[nH]c2ccccc12` [DMT, N,N-dimethyltryptamine, reference compound], the EC50 (usually the concentration that produces a half-maximal response) in data set [1] fell in the range of 100 to 1000 nM. On human 5-HT2A [2], the IC50 (in general, the concentration needed to halve the response being measured) is 500 to 5000 nM. The “Remaining Percentage (%) after 60 min Human” value in data set [3] was 0.72%. Besides, the half-life (in general, the time in which the quantity being followed falls by half) at 2 μM in data set [4] (male, mouse, microsomes) is 50.5 min; in data set [7] (rat, microsomes), 22.7 min. Further, the microsomal CLint – broadly, the capacity of the preparation to metabolise the compound, expressed as a volume cleared per time – at 2 μM worked out at 27.4 µL/min/mg in data set [4] (male, mouse, microsomes) and 61 µL/min/mg in data set [7] (rat, microsomes). The “Remaining Percentage (%) after 60 min Mouse” value in data set [4] (mouse liver microsomes, with NADPH, 2 μM) was determined as 65.90%. Moreover, the Ki on human 5-HT2A [5] is 0.237 nM. In addition, the oral activity entry in data set [6] is “not orally active”. In data set [7] (rat liver microsomes, with NADPH, 2 μM), the “Remaining Percentage (%) after 60 min Rat” value came to 17.29%.
